Source: PubChem BioAssay AID1259408 (Genetic Toxicology Data Bank (GENE-TOX), 2018)
Active and inactive are the calls of the source. How the calls were made is not given here.

Tested on: GENE-TOX genotoxicity assays, various organisms and cells
Experiment: GENE-TOX mutagenicity studies
Conditions: for call: Assay Type: In vivo carcinogenicity studies
[1] = Species/Cell Type: Drosophila melanogaster, Assay Type: Sex-linked recessive lethal gene mutation, Assay Code: SRL+, Evaluation Type: Evaluation A (Pre-1980)
[2] = Species/Cell Type: Escherichia coli polA (W3119 vs P3478), Assay Type: Rec-assay, DNA effects (bacterial DNA repair), Assay Code: RE1+, Evaluation Type: Evaluation A (Pre-1980)
[3] = Species/Cell Type: Saccharomyces cerevisiae, Assay Type: Mitotic recombination or gene conversion, Assay Code: YEC+, Evaluation Type: Evaluation A (Pre-1980)
[4] = Species/Cell Type: Salmonella typhimurium (one or more of the five standard strains: TA98, TA100, TA1535, TA1537, and TA1538), Assay Type: Histidine reverse gene mutation, Ames assay, Assay Code: SAL+, Evaluation Type: Evaluation A (Pre-1980)
[5] = Species/Cell Type: Drosophila melanogaster, Assay Type: Sex-linked recessive lethal gene mutation, Assay Code: SRLT, Evaluation Type: Evaluation A (Pre-1980)
[6] = Species/Cell Type: Salmonella typhimurium (one or more of the five standard strains: TA98, TA100, TA1535, TA1537, and TA1538), Assay Type: Histidine reverse gene mutation, Ames assay, Assay Code: SALT, Evaluation Type: Evaluation A (Pre-1980)
[7] = Species/Cell Type: Saccharomyces cerevisiae, Assay Type: Mitotic recombination or gene conversion, Assay Code: YEH-, Evaluation Type: Evaluation A (Pre-1980)
[8] = Species/Cell Type: Salmonella typhimurium (one or more of the five standard strains: TA98, TA100, TA1535, TA1537, and TA1538), Assay Type: Histidine reverse gene mutation, Ames assay, Assay Code: SAL+*, Activation: With metabolic activation, Evaluation Type: Evaluation A (Pre-1980)
[9] = Species/Cell Type: Neurospora crassa, Assay Type: Forward gene mutation, Assay Code: NEF+, Evaluation Type: Evaluation A (Pre-1980)
[10] = Species/Cell Type: Mouse, Sex: Male, Assay Type: Sperm morphology, Assay Code: SPI-, Evaluation Type: Evaluation A (Pre-1980)

Question: Which mutagenic call (Species/Cell Type: Arabidopsis species, Assay Type: Gene mutation, Assay Code: ARM+D, Dose Response: With dose response, Evaluation Type: Evaluation A (Pre-1980)) does the source give for `CCOC(=O)N(CC)N=O` here?
Answer: active; positive

Question: What about the mutagenic call (Species/Cell Type: Drosophila melanogaster, Assay Type: Aneuploidy, partial sex chromosome loss, chromosome aberrations, Assay Code: DAP+MDAC+M, Dose Response: With dose response, Evaluation Type: Evaluation A (Pre-1980)) of the same molecule?
Answer: active; positive

Question: And the mutagenic call (Species/Cell Type: Drosophila melanogaster, Assay Type: Aneuploidy, sex chromosome gain, chromosome aberrations, Assay Code: DAGT, Evaluation Type: Evaluation A (Pre-1980))?
Answer: no conclusion

Question: What about the mutagenic call [1] of the same molecule?
Answer: active; positive

Question: And the mutagenic call [2]?
Answer: active; positive

Question: What about the mutagenic call (Species/Cell Type: Hordeum vulgare (barley), Assay Type: Gene mutation, Assay Code: HOM+D, Dose Response: With dose response, Evaluation Type: Evaluation A (Pre-1980)) of the same molecule?
Answer: active; positive

Question: And the mutagenic call (Species/Cell Type: Neurospora crassa, Assay Type: Reverse gene mutation, Assay Code: NER+, Evaluation Type: Evaluation A (Pre-1980))?
Answer: active; positive

Question: And the mutagenic call [3]?
Answer: active; positive

Question: And the mutagenic call [4]?
Answer: active; positive

Question: What about the mutagenic call (Species/Cell Type: Schizosaccharomyces pombe, Assay Type: Reverse gene mutation, Assay Code: YEZ+, Evaluation Type: Evaluation A (Pre-1980)) of the same molecule?
Answer: active; positive

Question: `CN[C@@H]1[C@H](O[C@H]2[C@H](O[C@H]3[C@H](O)[C@@H](O)[C@H](N=C(N)N)[C@@H](O)[C@@H]3N=C(N)N)O[C@@H](C)[C@]2(O)C=O)O[C@@H](CO)[C@H](O)[C@H]1O` was tested. Which mutagenic call (Species/Cell Type: Bacillus subtilis (H17 vs M45T), Assay Type: Rec-assay, spot test, DNA effects (bacterial DNA repair), Assay Code: REXT, Evaluation Type: Evaluation A (Pre-1980)) did it give?
Answer: no conclusion

Question: What about the mutagenic call [5] of the same molecule?
Answer: no conclusion

Question: What about the mutagenic call (Species/Cell Type: Escherichia coli polA (W3119 vs P3478), Assay Type: Rec-assay, DNA effects (bacterial DNA repair), Assay Code: RE1-, Evaluation Type: Evaluation A (Pre-1980)) of the same molecule?
Answer: inactive; negative

Question: And the mutagenic call (Species/Cell Type: Vicia faba, Assay Type: Chromosome aberrations, Assay Code: VIC+, Evaluation Type: Evaluation A (Pre-1980))?
Answer: active; positive

Question: With `NNC(=O)COc1ccc(Br)cc1CN1CCCCC1` as the molecule, how does the mutagenic call (Species/Cell Type: Saccharomyces cerevisiae, Assay Type: Reverse gene mutation, Assay Code: YERT, Evaluation Type: Evaluation A (Pre-1980)) read?
Answer: no conclusion

Question: With `Nc1c(O)cc(S(=O)(=O)O)c2ccccc12` as the molecule, how does the mutagenic call [6] read?
Answer: no conclusion

Question: Which results are given for `CCCN(CCC)C(=O)SCC`?
Answer: mutagenic call (Species/Cell Type: Neurospora crassa, Assay Type: Aneuploidy, chromosome aberrations, Assay Code: NEN-, Evaluation Type: Evaluation A (Pre-1980)): inactive; negative; mutagenic call (Species/Cell Type: Zea mays (corn), Assay Type: Gene mutation, Assay Code: ZEM-, Evaluation Type: Evaluation A (Pre-1980)): inactive; negative

Question: How did the mutagenic call (Species/Cell Type: Allium cepa, Assay Type: Chromosome aberrations, Assay Code: ALC+D, Dose Response: With dose response, Evaluation Type: Evaluation A (Pre-1980)) turn out when `Nc1ncnc2nc[nH]c12` was run?
Answer: active; positive

Question: What about the mutagenic call [5] of the same molecule?
Answer: no conclusion

Question: Which mutagenic call (Species/Cell Type: Allium cepa, Assay Type: Chromosome aberrations, Assay Code: ALC+, Evaluation Type: Evaluation A (Pre-1980)) does the source give for `COc1ccccc1O` here?
Answer: active; positive

Question: And the mutagenic call (Species/Cell Type: Human lymphocytes, Assay Type: Sister-chromatid exchange (SCE) in vitro, Assay Code: SCL+D, Dose Response: With dose response, Evaluation Type: Evaluation B (Post-1980))?
Answer: active; positive

Question: And the mutagenic call (Species/Cell Type: Human, Assay Type: Sister-chromatid exchange (SCE) in vitro, Assay Code: SC1+D, Dose Response: With dose response, Evaluation Type: Evaluation B (Post-1980))?
Answer: active; positive

Question: And the mutagenic call [6]?
Answer: no conclusion

Question: Which mutagenic call (Species/Cell Type: Human diploid fibroblasts, Assay Type: Unscheduled DNA synthesis (UDS) in vitro, DNA effects, Assay Code: UDH-, Evaluation Type: Evaluation A (Pre-1980)) does the source give for `CC(C)=CC1C(C(=O)OCc2cccc(Oc3ccccc3)c2)C1(C)C` (configuration not stated) here?
Answer: inactive; negative

Question: What about the mutagenic call [7] of the same molecule?
Answer: inactive; negative

Question: Which mutagenic call [6] does the source give for `Cc1ccc2c(ccc3c4c(ccc32)C(=O)CC4)c1` here?
Answer: no conclusion

Question: Which mutagenic call [8] does the source give for `CC1CN(N=O)C(C)CN1N=O` (configuration not stated) here?
Answer: active; positive

Question: Which results are given for `c1ccc2c(c1)ccc1cc3c(ccc4ccccc43)cc12`?
Answer: mutagenic call (Species/Cell Type: Chinese hamster lung (V79) cells, Assay Type: Forward gene mutation at the HPRT or ouabain locus, Assay Code: V79+*, Activation: With metabolic activation, Evaluation Type: Evaluation A (Pre-1980)): active; positive; mutagenic call [1]: active; positive; mutagenic call (Species/Cell Type: Fischer rat embryo (RLV/1706) cells, Assay Type: Cell transformation, viral enhanced, Assay Code: CTR+, Evaluation Type: Evaluation A (Pre-1980)): active; positive; mutagenic call (Species/Cell Type: Fischer rat embryo (SA7/RE) cells, Assay Type: Cell transformation, viral enhanced, Assay Code: CTA+, Evaluation Type: Evaluation A (Pre-1980)): active; positive; mutagenic call (Species/Cell Type: Human diploid fibroblasts, Assay Type: Unscheduled DNA synthesis (UDS) in vitro, DNA effects, Assay Code: UDHT, Evaluation Type: Evaluation A (Pre-1980)): no conclusion; mutagenic call (Species/Cell Type: Mouse (BALB/c-3T3) cells, Assay Type: Cell transformation, Assay Code: CTB+, Evaluation Type: Evaluation A (Pre-1980)): active; positive; mutagenic call (Species/Cell Type: Mouse (C3H/10T1/2) cells, Assay Type: Cell transformation, Assay Code: CTH+, Evaluation Type: Evaluation A (Pre-1980)): active; positive; mutagenic call (Species/Cell Type: Mouse embryo (AKR/ME) cells, Assay Type: Cell transformation, Assay Code: CTK+, Evaluation Type: Evaluation A (Pre-1980)): active; positive; mutagenic call (Species/Cell Type: Mouse prostate cells, Assay Type: Cell transformation, Assay Code: CTMT, Evaluation Type: Evaluation A (Pre-1980)): no conclusion; mutagenic call [9]: active; positive; call (Species/Cell Type: Nonhuman, Assay Code: CCG+, Evaluation Type: Evaluation A (Pre-1980)): active; positive; mutagenic call (Species/Cell Type: Nonhuman, Assay Type: Sister-chromatid exchange (SCE) in vivo, Assay Code: SC3T, Evaluation Type: Evaluation A (Pre-1980)): no conclusion; mutagenic call [8]: active; positive; mutagenic call (Species/Cell Type: Syrian hamster embryo (SA7/SHE) cells, Assay Type: Cell transformation, viral enhanced, Assay Code: CT7+, Evaluation Type: Evaluation A (Pre-1980)): active; positive; mutagenic call (Species/Cell Type: Syrian hamster embryo (SHE) cells, Assay Type: Cell transformation, clonal assay, Assay Code: CTC+D, Dose Response: With dose response, Evaluation Type: Evaluation A (Pre-1980)): active; positive; mutagenic call (Species/Cell Type: Syrian hamster embryo (SHE) cells, Assay Type: Cell transformation, focus assay, Assay Code: CTF+, Evaluation Type: Evaluation A (Pre-1980)): active; positive

Question: With `CC(CN(CC(=O)O)CC(=O)O)N(CC(=O)O)CC(=O)O` (configuration not stated) as the molecule, how does the mutagenic call (Species/Cell Type: Chinese hamster lung (V79) cells, Assay Type: Forward gene mutation at the HPRT or ouabain locus, Assay Code: V79+, Evaluation Type: Evaluation A (Pre-1980)) read?
Answer: active; positive

Question: For `O=[N+]([O-])c1ccccc1O`, which mutagenic call (Species/Cell Type: Allium cepa, Assay Type: Chromosome aberrations, Assay Code: ALC-, Evaluation Type: Evaluation A (Pre-1980)) is on record?
Answer: inactive; negative

Question: Which mutagenic call (Species/Cell Type: Drosophila melanogaster, Assay Type: Aneuploidy, partial sex chromosome loss, chromosome aberrations, Assay Code: DAPT, Evaluation Type: Evaluation A (Pre-1980)) does the source give for `CN(C)N=Nc1c(Cl)cc(Cl)cc1Cl` here?
Answer: no conclusion

Question: What about the mutagenic call (Species/Cell Type: Drosophila melanogaster, Assay Type: Aneuploidy, whole sex chromosome loss, chromosome aberrations, Assay Code: DACT, Evaluation Type: Evaluation A (Pre-1980)) of the same molecule?
Answer: no conclusion

Question: And the mutagenic call [1]?
Answer: active; positive

Question: And the mutagenic call (Species/Cell Type: Mammalian polychromatic erythrocytes, Assay Type: Micronucleus test, chromosome aberrations, Assay Code: MNT+, Evaluation Type: Evaluation A (Pre-1980))?
Answer: active; positive

Question: And the mutagenic call [9]?
Answer: active; positive

Question: And the mutagenic call [3]?
Answer: active; positive

Question: How did the call (Species/Cell Type: Nonhuman, Assay Code: CCG-, Evaluation Type: Evaluation A (Pre-1980)) turn out when `Cc1c(N)cccc1N` was run?
Answer: inactive; negative

Question: `Nc1ccc(F)cc1` was tested. Which mutagenic call [10] did it give?
Answer: inactive; negative

Question: `[Cl][Th]([Cl])([Cl])[Cl]` was tested. Which mutagenic call (Species/Cell Type: Bacillus subtilis (H17 vs M45), Assay Type: Rec-assay, spot test, DNA effects (bacterial DNA repair), Assay Code: REW-, Evaluation Type: Evaluation A (Pre-1980)) did it give?
Answer: inactive; negative

Question: How did the mutagenic call (Species/Cell Type: Chinese hamster ovary (CHO) cells, Assay Type: Forward gene mutation at the HPRT locus, Assay Code: CHO+, Evaluation Type: Evaluation B (Post-1980)) turn out when `CC[n+]1c(-c2ccccc2)c2cc(N)ccc2c2ccc(N)cc21` was run?
Answer: active; positive

Question: And the mutagenic call [2]?
Answer: active; positive

Question: And the mutagenic call (Species/Cell Type: Mammalian cell culture, nonhuman, Assay Type: Micronucleus test in vitro, chromosome aberrations, Assay Code: MN&+, Evaluation Type: Evaluation A (Pre-1980))?
Answer: active; positive

Question: What about the mutagenic call (Species/Cell Type: Mammalian germ cells, Sex: Male, Assay Type: Chromosome aberrations in vivo, Assay Code: CY9T, Evaluation Type: Evaluation A (Pre-1980)) of the same molecule?
Answer: no conclusion

Question: And the mutagenic call [10]?
Answer: inactive; negative

Question: What about the mutagenic call (Species/Cell Type: Saccharomyces cerevisiae, Assay Type: Mitotic recombination or gene conversion, Assay Code: YEC-, Evaluation Type: Evaluation A (Pre-1980)) of the same molecule?
Answer: inactive; negative

Question: What about the mutagenic call [7] of the same molecule?
Answer: inactive; negative

Question: What about the mutagenic call (Species/Cell Type: Saccharomyces cerevisiae, Assay Type: Reverse gene mutation, Assay Code: YER-, Evaluation Type: Evaluation A (Pre-1980)) of the same molecule?
Answer: inactive; negative

Question: And the mutagenic call [4]?
Answer: active; positive

Question: What about the mutagenic call (Species/Cell Type: Syrian hamster embryo (SA7/SHE) cells, Assay Type: Cell transformation, viral enhanced, Assay Code: CT7-, Evaluation Type: Evaluation A (Pre-1980)) of the same molecule?
Answer: inactive; negative

Question: How did the mutagenic call [8] turn out when `O=C1c2ccccc2C(=O)c2c1ccc(OCCCS(=O)(=O)O)c2O` was run?
Answer: active; positive

Question: Which mutagenic call (Species/Cell Type: Human, Assay Type: Sister-chromatid exchange (SCE) in vitro, Assay Code: SC1+D*, Activation: With metabolic activation, Dose Response: With dose response, Evaluation Type: Evaluation B (Post-1980)) does the source give for `Cc1cccn2c1nc1ccc(N)nc12` here?
Answer: active; positive
